Experimental data taken from US9580390B2, “Indazole compounds as kinase inhibitors and method of treating cancer with same” (University Health Network, priority 2011, dated 2017).

Legend:
[1] = system: colon cancer cells (HCT116); experiment: Cancer cell line growth inhibition (SRB assay); format: cell-based; conditions: Homo sapiens, HCT-116; HCT116 colon cancer cells, SRB assay; read-out: Cancer Cell Line GI50 Range HCT116
[2] = system: ovarian cancer cells (PA-1); experiment: Cancer cell line growth inhibition (SRB assay); format: cell-based; conditions: PA-1 ovarian cancer cells, SRB assay; read-out: Cancer Cell Line GI50 Range PA-1

| Structure (SMILES) | GI50 [1] [nM] | GI50 [2] [nM] |
| --- | --- | --- |
| CCc1cccc(CC)c1NC(=O)Nc1ccc2[nH]nc(-c3ccc4c(c3)CN(C)CCO4)c2c1 [Example A114, 1-(2,6-diethylphenyl)-3-(3-(4-methyl-2,3,4,5-tetrahydrobenzo[f][1,4]oxazepin-7-yl)-1H-indazol-5-yl)urea] | > 500 | > 500 |
| COC1CCN(c2ccc(-c3n[nH]c4ccc(NC(=O)C(c5ccsc5)N5CCCC5)cc34)cc2)CC1 (centres unmarked) [Example A116, N-(3-(4-(4-methoxypiperidin-1-yl)phenyl)-1H-indazol-5-yl)-2-(pyrrolidin-1-yl)-2-(thiophen-3-yl)acetamide] | 100 to 500 | 100 to 500 |
| Cc1ccccc1C(NC(=O)c1ccc2[nH]nc(-c3ccc(N4CCOCC4)cc3)c2c1)C1CC1 (centres unmarked) [Example A119, N-(cyclopropyl(o-tolyl)methyl)-3-(4-morpholinophenyl)-1H-indazole-5-carboxamide] | 100 to 500 | 100 to 500 |
| O=C(Nc1ccc2[nH]nc(-c3ccc(N4CC(O)C4)cc3)c2c1)C(c1ccsc1)N1CCCC1 (centres unmarked) [Example A120, N-(3-(4-(3-Hydroxyazetidin-1-yl)phenyl)-1H-indazol-5-yl)-2-(pyrrolidin-1-yl)-2-(thiophen-3-yl)acetamide] | < 100 | < 100 |
| CN1CCC(Oc2ccc(-c3n[nH]c4ccc(C(=O)NC(c5ccsc5)C5CCC5)cc34)cc2)CC1 (centres unmarked) [Example A121, N-(cyclobutyl(thiophen-3-yl)methyl)-3-(4-((1-methylpiperidin-4-yl)oxy)phenyl)-1H-indazole-5-carboxamide] | < 100 | < 100 |
| O=C(NC(c1ccsc1)C1CCC1)c1ccc2[nH]nc(-c3ccc(N4CCOCC4)cc3)c2c1 (centres unmarked) [Example A123, N-(cyclobutyl(thiophen-3-yl)methyl)-3-(4-morpholinophenyl)-1H-indazole-5-carboxamide] | 100 to 500 | < 100 |
| CCc1cccc(CC)c1NC(=O)Nc1ccc2[nH]nc(-c3ccc(C4CN(C)CCO4)cc3)c2c1 (centres unmarked) [Example A124, 1-(2,6-diethylphenyl)-3-(3-(4-(4-methylmorpholin-2-yl)phenyl)-1H-indazol-5-yl)urea] | 100 to 500 | 100 to 500 |
| CN1CCC(Oc2ccc(-c3n[nH]c4ccc(C(=O)N[C@@H](CCO)c5ccccc5)cc34)cc2)CC1 [Example A125, (S)-N-(3-hydroxy-1-phenylpropyl)-3-(4-((1-methylpiperidin-4-yl)oxy)phenyl)-1H-indazole-5-carboxyamide] | 100 to 500 | 100 to 500 |
| CN1CCOC(c2ccc(-c3n[nH]c4ccc(C(=O)NC(c5ccccc5)C5CC5)cc34)cc2)C1 (centres unmarked) [Example A139, N-(cyclopropyl(phenyl)methyl)-3-(4-(4-methylmorpholin-2-yl)phenyl)-1H-indazole-5-carboxamide] | 100 to 500 | 100 to 500 |
| Cc1ccccc1C(NC(=O)c1ccc2[nH]nc(-c3ccc(N4CC(O)C4)cc3)c2c1)C1CC1 (centres unmarked) [Example A141, N-(cyclopropyl(o-tolyl)methyl)-3-(4-(3-hydroxyazetidin-1-yl)phenyl)-1H-indazole-5-carboxamide] | 100 to 500 | 100 to 500 |
| CN1CCC(Oc2ccc(-c3n[nH]c4ccc(C(=O)NCc5ccccc5CO)cc34)cc2)CC1 [Example A142, N-(2-(hydroxymethyl)benzyl)-3-(4-((1-methylpiperidin-4-yl)oxy)phenyl)-1H-indazole-5-carboxamide] | 100 to 500 | > 500 |
| Cc1ccccc1C(NC(=O)c1ccc2[nH]nc(-c3ccc(OC4CCN(C)CC4)cc3)c2c1)C(C)C (centres unmarked) [Example A143, N-(2-methyl-1-(o-tolyl)propyl)-3-(4-((1-methylpiperidin-4-yl)oxy)phenyl)-1H-indazole-5-carboxamide] | 100 to 500 | 100 to 500 |
| CO[C@@H](C(=O)Nc1ccc2[nH]nc(-c3ccc(OCC4CCN(C)CC4)cc3)c2c1)c1ccccc1 [Example A145, (R)-2-methoxy-N-(3-(4-((1-methylpiperidin-4-yl)methoxy)phenyl)-1H-indazol-5-yl)-2-phenylacetamide] | 100 to 500 | 100 to 500 |
| CN1CCC(Oc2ccc(-c3n[nH]c4ccc(NC(=O)C5OCCc6ccccc65)cc34)cc2)CC1 (centres unmarked) [Example A146, N-(3-(4-(1-Methylpiperidin-4-yloxy)phenyl)-1H-indazol-5-yl)isochroman-1-carboxamide] | > 500 | 100 to 500 |
| CCC(NC(=O)c1ccc2[nH]nc(-c3ccc(OC4CCN(CCOC)CC4)cc3)c2c1)c1ccccc1 (centres unmarked) [Example A153, 3-(4-((1-(2-methoxyethyl)piperidin-4-yl)oxy)phenyl)-N-(1-phenylpropyl)-1H-indazole-5-carboxamide] | 100 to 500 | 100 to 500 |
| COCCN1CCC(Oc2ccc(-c3n[nH]c4ccc(C(=O)NC(c5ccccc5)C5CCCC5)cc34)cc2)CC1 (centres unmarked) [Example A161, N-(cyclopentyl(phenyl)methyl)-3-(4-((1-(2-methoxyethyl)piperidin-4-yl)oxy)phenyl)-1H-indazole-5-carboxamide] | 100 to 500 | 100 to 500 |
| COCCN1CCC(Oc2ccc(-c3n[nH]c4ccc(C(=O)N[C@H](COC)c5ccccc5)cc34)cc2)CC1 [Example A164, (S)-N-(2-methoxy-1-phenylethyl)-3-(4-((1-(2-methoxyethyl)piperidin-4-yl)oxy)phenyl)-1H-indazole-5-carboxamide] | 100 to 500 | 100 to 500 |
| COc1cc(-c2n[nH]c3ccc(C(=O)NC(c4ccccc4)C4CC4)cc23)ccc1OC1CCN(C=O)CC1 (centres unmarked) [Example A205, N-(cyclopropyl(phenyl)methyl)-3-(4-((1-formylpiperidin-4-yl)oxy)-3-methoxyphenyl)-1H-indazole-5-carboxamide] | 100 to 500 | 100 to 500 |
| CN1CCC(Oc2ccc(-c3n[nH]c4ccc(C(=O)NCC(c5ccccc5)C5CCCC5)cc34)cc2)CC1 (centres unmarked) [Example A207, N-(2-cyclopentyl-2-phenylethyl)-3-(4-((1-methylpiperidin-4-yl)oxy)phenyl)-1H-indazole-5-carboxamide] | 100 to 500 | 100 to 500 |

Next, values leading:

| GI50 [1] [nM] | GI50 [2] [nM] | Structure (SMILES) |
| --- | --- | --- |
| 100 to 500 | 100 to 500 | O=C(NC(c1ccccc1)C1CC1)c1ccc2[nH]nc(-c3ccc(OC4CCN(CCF)CC4)cc3)c2c1 (centres unmarked) [Example A122, N-(cyclopropyl(phenyl)methyl)-3-(4-((1-(2-fluoroethyl)piperidin-4-yl)oxy)phenyl)-1H-indazole-5-carboxamide] |
| 100 to 500 | 100 to 500 | O=CN1CCC(Oc2ccc(-c3n[nH]c4ccc(C(=O)NC(c5ccccc5)C5CC5)cc34)cc2)CC1 (centres unmarked) [Example A126, N-(cyclopropyl(phenyl)methyl)-3-(4-((1-formylpiperidin-4-yl)oxy)phenyl)-1H-indazole-5-carboxamide] |
| 100 to 500 | 100 to 500 | O=C(NC(c1ccccc1)C1CC1)c1ccc2[nH]nc(-c3ccc(OCCN4CCOCC4)cc3)c2c1 (centres unmarked) [Example A140, N-(cyclopropyl(phenyl)methyl)-3-(4-(2-morpholinoethoxy)phenyl)-1H-indazole-5-carboxamide] |
| 100 to 500 | 100 to 500 | CN(C)C(=O)CN1CCC(Oc2ccc(-c3n[nH]c4ccc(C(=O)NC(c5ccccc5)C5CC5)cc34)cc2)CC1 (centres unmarked) [Example A158, N-(cyclopropyl(phenyl)methyl)-3-(4-((1-(2-(dimethylamino)-2-oxoethyl)piperidin-4-yl)oxy)phenyl)-1H-indazole-5-carboxamide] |
| 100 to 500 | 100 to 500 | CC[C@@H](NC(=O)c1ccc2[nH]nc(-c3ccc(OC4CCN(C5COC5)CC4)cc3)c2c1)c1ccccc1Cl [Example A192, (R)-N-(1-(2-chlorophenyl)propyl)-3-(4-((1-(oxetan-3-yl)piperidin-4-yl)oxy)phenyl)-1H-indazole-5-carboxamide] |
| 100 to 500 | 100 to 500 | COc1cc(-c2n[nH]c3ccc(C(=O)NC(c4ccccc4)C4CC4)cc23)ccc1OC1CCN(C2COC2)CC1 (centres unmarked) [Example A194, N-(cyclopropyl(phenyl)methyl)-3-(3-methoxy-4-((1-(oxetan-3-yl)piperidin-4-yl)oxy)phenyl)-1H-indazole-5-carboxamide] |
| 100 to 500 | 100 to 500 | COc1cc(-c2n[nH]c3ccc(C(=O)NC(c4ccccn4)C4CC4)cc23)ccc1OC1CCN(C2COC2)CC1 (centres unmarked) [Example A195, N-(cyclopropyl(pyridin-2-yl)methyl)-3-(3-methoxy-4-((1-(oxetan-3-yl)piperidin-4-yl)oxy)phenyl)-1H-indazole-5-carboxamide] |
| < 100 | < 100 | O=C(N[C@@H](c1ccccn1)C1CC1)c1ccc2[nH]nc(-c3ccc(OC4CCN(C5COC5)CC4)cc3)c2c1 [Example A196, (R)-N-(cyclopropyl(pyridin-2-yl)methyl)-3-(4-((1-(oxetan-3-yl)piperidin-4-yl)oxy)phenyl)-1H-indazole-5-carboxamide] |
| 100 to 500 | 100 to 500 | CN1CCC(Oc2ccc(-c3n[nH]c4ccc(C(=O)NC(c5ccccc5Cl)C5CCCC5)cc34)cc2)CC1 (centres unmarked) [Example A199, N-((2-chlorophenyl)(cyclopentyl)methyl)-3-(4-((1-methylpiperidin-4-yl)oxy)phenyl)-1H-indazole-5-carboxamide] |
| 100 to 500 | 100 to 500 | O=CN1CCC(Oc2ccc(-c3n[nH]c4ccc(C(=O)N[C@@H](c5ccccn5)C5CC5)cc34)cc2)CC1 [Example A203, (R)-N-(cyclopropyl(pyridin-2-yl)methyl)-3-(4-((1-formylpiperidin-4-yl)oxy)phenyl)-1H-indazole-5-carboxamide] |
| 100 to 500 | 100 to 500 | COc1cc(-c2n[nH]c3ccc(C(=O)NC(c4ccccn4)C4CC4)cc23)ccc1OC1CCN(C=O)CC1 (centres unmarked) [Example A206, N-(cyclopropyl(pyridin-2-yl)methyl)-3-(4-((1-formylpiperidin-4-yl)oxy)-3-methoxyphenyl)-1H-indazole-5-carboxamide] |
| 100 to 500 | 100 to 500 | O=C(NC(c1ccccn1)C1CC1)c1ccc2[nH]nc(-c3ccc(OC4CN(C5COC5)C4)cc3)c2c1 (centres unmarked) [Example A209, N-(cyclopropyl(pyridin-2-yl)methyl)-3-(4-((1-(oxetan-3-yl)azetidin-3-yl)oxy)phenyl)-1H-indazole-5-carboxamide] |
